We go through 23 compounds from patent US20230416258A1, “BENZ[…], AND PREPARATION METHOD THEREFOR AND USE THEREOF” (CHINA PHARMACEUTICAL UNIVERSITY, priority 2020, published 2023).

In the first experiment the test system is KM mice. Kind of experiment: Test for drug-induced disappearance of righting reflex in mice. The format is in vivo. Particulars: 30 mg/kg, single rapid bolus via tail vein. The text has this:
In anesthetic drug experiments, latency generally refers to the time from the start of administration to the loss of consciousness of the subject. The shorter latency is preferred, indicating a rapid onset of action after administration. The duration of anesthesia generally refers to the duration of time from the loss of consciousness to the restoration of consciousness of the subject. The duration of the drug will vary from animal model to animal species. Too long anesthesia may produce adverse cardiovascular and respiratory responses, such as adverse neurological effects to the subject, including sleepiness and dizziness; meanwhile, too short duration of anesthesia may affect the anesthesia effect, causing problems such as increase of anesthesia dosage during the operation.
KM mice (female, 18-25 g) were randomly grouped and subjected to a single administration by rapid bolus via the tail vein. The latency and duration of disappearance of righting reflex in the mice were recorded.
As for `COC(=O)CC[C@@H]1N=C(c2ccccc2F)c2cc(Br)ccc2-n2c(SCCCN3CCN(CCO)CC3)nnc21` [Compound 67, methyl (S)-3-(8-bromo-6-(2-fluorophenyl)-1-((3-(4-(2-hydroxyethyl)piperazin-1-yl)propyl)thio)-4H-benzo[f][1,2,4]triazolo[4,3-a][1,4]diazepin-4-yl)propionate], the Duration stood at 11.37 min and the Latency is 0.84 min.
Turning to `CCSc1nnc2n1-c1ccc(Cl)cc1C(c1ccccc1F)=N[C@H]2CCC(=O)OC` [Compound 11, methyl (S)-3-(8-chloro-6-(2-fluorophenyl)-1-(ethylthio)-4H-benzo[f][1,2,4]triazolo[4,3-a][1,4]diazepin-4-yl)propionate], the Duration is 6.37 min and the Latency stood at 0.77 min.
The matching figures for `CCN(CC)CCSc1nnc2n1-c1ccc([N+](=O)[O-])cc1C(c1ccccc1F)=N[C@H]2CCC(=O)OC` [Compound 56, methyl (S)-3-(8-nitro-1-((2-(diethylamino)ethyl)thio)-6-(2-fluorophenyl)-4H-benzo[f][1,2,4]triazolo[4,3-a][1,4]diazepin-4-yl)propionate]: 10.22 min and 0.92 min.
The matching figures for `COC(=O)CC[C@@H]1N=C(c2ccccc2Cl)c2cc(Br)ccc2-n2c(SCCCN(C)C)nnc21` [Compound 88, methyl (S)-3-(8-bromo-6-(2-chlorophenyl)-1-((3-(dimethylamino)propyl)thio)-4H-benzo[f][1,2,4]triazolo[4,3-a][1,4]diazepin-4-yl)propionate]: 15.82 min and 0.53 min.
The matching figures for `CCSc1nnc2n1-c1ccc(Br)cc1C(c1ccccc1Cl)=N[C@H]2CCC(=O)OC` [Compound 27, methyl (S)-3-(8-bromo-6-(2-chlorophenyl)-1-(ethylthio)-4H-benzo[f][1,2,4]triazolo[4,3-a][1,4]diazepin-4-yl)propionate]: 5.93 min and 0.35 min.
Take `CCCSc1nnc2n1-c1ccc(Cl)cc1C(c1ccccc1F)=N[C@H]2CCC(=O)OC` [Compound 14, methyl (S)-3-(8-chloro-6-(2-fluorophenyl)-1-(propylthio)-4H-benzo[f][1,2,4]triazolo[4,3-a][1,4]diazepin-4-yl)propionate]: the Duration was found to be 9.12 min and the Latency stood at 0.78 min.
The corresponding values for `CCOC(=O)CC[C@@H]1N=C(c2ccccc2Cl)c2cc(Cl)ccc2-n2c(SC)nnc21` [Compound 42, ethyl (S)-3-(8-chloro-6-(2-chlorophenyl)-1-(methylthio)-4H-benzo[f][1,2,4]triazolo[4,3-a][1,4]diazepin-4-yl)propionate] are 4.68 min and 0.65 min.
In turn, `COC(=O)CC[C@@H]1N=C(c2ccccc2)c2cc(Br)ccc2-n2c(SC)nnc21` [Compound 103, methyl (S)-3-(8-bromo-1-(methylthio)-6-phenyl-4H-benzo[f][1,2,4]triazolo[4,3-a][1,4]diazepin-4-yl)propionate] displayed a Duration of 14.42 min and a Latency of 0.74 min.
The matching figures for `COC(=O)CC[C@@H]1N=C(c2ccccn2)c2cc(Br)ccc2-n2c(SCC3CC3)nnc21` [Compound 116, methyl (S)-3-(8-bromo-6-(pyridin-2-yl)-1-((cyclopropylmethyl)thio)-4H-benzo[f][1,2,4]triazolo[4,3-a][1,4]diazepin-4-yl)propionate]: 10.89 min and 0.11 min.
The corresponding values for `COC(=O)CC[C@@H]1N=C(c2ccccc2Cl)c2cc(Cl)ccc2-n2c(SCCN3CCN(C)CC3)nnc21` [Compound 90, methyl (S)-3-(8-chloro-6-(2-chlorophenyl)-1-((2-(4-methylpiperazin-1-yl)ethyl)thio)-4H-benzo[f][1,2,4]triazolo[4,3-a][1,4]diazepin-4-yl)propionate] are 15.26 min and 0.67 min.
Take `C#CCSc1nnc2n1-c1ccc(Br)cc1C(c1ccccc1F)=N[C@H]2CCC(=O)OC` [Compound 49, methyl (S)-3-(8-bromo-6-(2-fluorophenyl)-1-(prop-2-yn-1-ylthio)-4H-benzo[f][1,2,4]triazolo[4,3-a][1,4]diazepin-4-yl)propionate]: the Duration worked out at 9.65 min and the Latency came to 0.73 min.
The matching figures for `COC(=O)CC[C@@H]1N=C(c2ccccc2Cl)c2cc([N+](=O)[O-])ccc2-n2c(SCCCN3CCN(CCO)CC3)nnc21` [Compound 98, methyl (S)-3-(8-nitro-6-(2-chlorophenyl)-1-((3-(4-(2-hydroxyethyl)piperazin-1-yl)propyl)thio)-4H-benzo[f][1,2,4]triazolo[4,3-a][1,4]diazepin-4-yl)propionate]: 14.71 min and 1.31 min.
The matching figures for `COC(=O)CC[C@@H]1N=C(c2ccccc2Cl)c2cc(Br)ccc2-n2c(SCOP(=O)(O)O)nnc21` [Compound 112, methyl (S)-3-(8-bromo-6-(2-chlorophenyl)-1-(((phosphonooxy)methyl)thio)-4H-benzo[f][1,2,4]triazolo[4,3-a][1,4]diazepin-4-yl)propionate]: 19.21 min and 0.78 min.
As for `COC(=O)CC[C@@H]1N=C(c2ccccc2F)c2cc(Br)ccc2-n2c(SCN3CCN(c4ccccc4)CC3)nnc21` [Compound 73, methyl (S)-3-(8-bromo-6-(2-fluorophenyl)-1-(((4-phenylpiperazin-1-yl)methyl)thio)-4H-benzo[f][1,2,4]triazolo[4,3-a][1,4]diazepin-4-yl)propionate], the Duration is 12.12 min and the Latency was 0.86 min.
For the compound `COC(=O)CC[C@@H]1N=C(c2ccccn2)c2cc(Br)ccc2-n2c(SC)nnc21` [Compound 114, methyl (S)-3-(8-bromo-6-(pyridin-2-yl)-1-methylthio-4H-benzo[f][1,2,4]triazolo[4,3-a][1,4]diazepin-4-yl)propionate], the Duration is 20.32 min and the Latency is reported as 0.41 min.
The matching figures for `COC(=O)CC[C@@H]1N=C(c2ccccc2F)c2cc([N+](=O)[O-])ccc2-n2c(SCCN)nnc21` [Compound 22, methyl (S)-3-(8-nitro-6-(2-fluorophenyl)-1-((2-aminoethyl)thio)-4H-benzo[f][1,2,4]triazolo[4,3-a][1,4]diazepin-4-yl)propionate]: 6.53 min and 0.58 min.
The corresponding values for `COC(=O)CC[C@@H]1N=C(c2ccccn2)c2cc(Br)ccc2-n2c(SCCN3CCOCC3)nnc21` [Compound 117, methyl (S)-3-(8-bromo-6-(pyridin-2-yl)-1-((2-morpholinoethyl)thio)-4H-benzo[f][1,2,4]triazolo[4,3-a][1,4]diazepin-4-yl)propionate] are 2.03 min and 0.14 min.
The corresponding values for `CCN(CC)CCSc1nnc2n1-c1ccc(Br)cc1C(c1ccccc1F)=N[C@H]2CCC(=O)OC` [Compound 55, methyl (S)-3-(8-bromo-1-((2-(diethylamino)ethyl)thio)-6-(2-fluorophenyl)-4H-benzo[f][1,2,4]triazolo[4,3-a][1,4]diazepin-4-yl)propionate] are 13.84 min and 0.74 min.

Still in this experiment, the particulars now being: 60 mg/kg, single rapid bolus via tail vein.
In turn, `CCSc1nnc2n1-c1ccc(Cl)cc1C(c1ccccc1F)=N[C@H]2CCC(=O)OC` [Compound 11, methyl (S)-3-(8-chloro-6-(2-fluorophenyl)-1-(ethylthio)-4H-benzo[f][1,2,4]triazolo[4,3-a][1,4]diazepin-4-yl)propionate] returned a Duration of 7.98 min and a Latency of 0.83 min.
The corresponding values for `COC(=O)CC[C@@H]1N=C(c2ccccc2Cl)c2cc([N+](=O)[O-])ccc2-n2c(SCCN3CCN(C)CC3)nnc21` [Compound 92, methyl (S)-3-(8-nitro-6-(2-chlorophenyl)-1-((2-(4-methylpiperazin-1-yl)ethyl)thio)-4H-benzo[f][1,2,4]triazolo[4,3-a][1,4]diazepin-4-yl)propionate] are 10.12 min and 2.00 min.
The corresponding values for `COC(=O)CC[C@@H]1N=C(c2ccccc2F)c2cc(Cl)ccc2-n2c(SCCCN3CCN(CCO)CC3)nnc21` [Compound 66, methyl (S)-3-(8-chloro-6-(2-fluorophenyl)-1-((3-(4-(2-hydroxyethyl)piperazin-1-yl)propyl)thio)-4H-benzo[f][1,2,4]triazolo[4,3-a][1,4]diazepin-4-yl)propionate] are 4.27 min and 0.89 min.
The matching figures for `COC(=O)CC[C@@H]1N=C(c2ccccc2F)c2cc([N+](=O)[O-])ccc2-n2c(SCC3CC3)nnc21` [Compound 47, methyl (S)-3-(8-nitro-1-((cyclopropylmethyl)thio)-6-(2-fluorophenyl)-4H-benzo[f][1,2,4]triazolo[4,3-a][1,4]diazepin-4-yl)propionate]: 10.52 min and 0.82 min.
`COC(=O)CC[C@@H]1N=C(c2ccccc2Cl)c2cc([N+](=O)[O-])ccc2-n2c(SCOP(=O)(O)O)nnc21` [Compound 113, methyl (S)-3-(8-nitro-6-(2-chlorophenyl)-1-(((phosphonooxy)methyl)thio)-4H-benzo[f][1,2,4]triazolo[4,3-a][1,4]diazepin-4-yl)propionate] showed a Duration of 9.49 min and a Latency of 0.58 min.
The corresponding values for `COC(=O)CC[C@@H]1N=C(c2ccccc2Cl)c2cc(Br)ccc2-n2c(SCOP(=O)(O)O)nnc21` [Compound 112, methyl (S)-3-(8-bromo-6-(2-chlorophenyl)-1-(((phosphonooxy)methyl)thio)-4H-benzo[f][1,2,4]triazolo[4,3-a][1,4]diazepin-4-yl)propionate] are 12.62 min and 0.46 min.
The corresponding values for `COC(=O)CC[C@@H]1N=C(c2ccccc2F)c2cc(Br)ccc2-n2c(SC3CCN(C)CC3)nnc21` [Compound 64, methyl (S)-3-(8-bromo-6-(2-fluorophenyl)-1-((1-methylpiperidin-4-yl)thio)-4H-benzo[f][1,2,4]triazolo[4,3-a][1,4]diazepin-4-yl)propionate] are 14.27 min and 0.99 min.
